Results taken from paper PMC5323086, “Ionization Constants of the Six Dichloroanilines and the Six Dichlorophenols in Aqueous Solution at 25 °C” (Journal of Research of the National Bureau of Standards. …, 1964).
Where two headings read alike, the source gives them in different places. Blank lines part the entries; values can stand above or below the molecule they belong to.

What was measured:
[1] = pK calculated from monosubstituted compounds assuming additivity of substituent effects
[2] = cited from earlier work
[3] = aqueous solution at 25°; final value, standard deviation in parentheses; 2,6-compound: limiting value at CHCl=0
[4] = pK values quoted from the literature; assay type: physicochemical; conditions: Murray and Gordon value raised by 0.22
[5] = pK calculated by the Hammett relation, eq (5) and eq (6)
[6] = pKA calculated from pKP of the corresponding phenol by linear relation eq (8)
[7] = pK (calc.)−pK (obs.), pK (calc.) from monosubstituted compounds

SMILES: Nc1cccc(Cl)c1Cl [2,3-Dichloroaniline]
- ΔpK(1) Dichloroaniline [1, 7]: 0.16

SMILES: Oc1cccc(Cl)c1Cl [2,3-Dichlorophenol]
- ΔpK(1) Dichlorophenol [1]: −0.05

SMILES: Nc1ccc(Cl)cc1Cl [2,4-Dichloroaniline, 2,4-Dichloroaniline]
- ΔpK(1) Dichloroaniline [1, 7]: .01

SMILES: Oc1ccc(Cl)cc1Cl [2,4-Dichlorophenol]
- ΔpK(1) Dichlorophenol [1]: .06

- melting point: 50 to 50.5 °C
SMILES: Nc1cc(Cl)ccc1Cl [2,5-Dichloroaniline]
- pKA ([2]; Gillois and Rumpf): 1.57

SMILES: Oc1cc(Cl)ccc1Cl [2,5-Dichlorophenol]
- ΔpK(1) Dichlorophenol [1]: .15

SMILES: Cc1ccc(C)c(O)c1 [2,5-xylenol]
- pK [2]: 10.40

SMILES: Nc1c(Cl)cccc1Cl [2,6-Dichloroaniline]
- ΔpK(1) Dichloroaniline [1, 7]: .28
- pK Dichloroaniline [3]: 0.422
- pKa (physchem): 0.482

SMILES: Oc1c(Cl)cccc1Cl [2,6-Dichlorophenol]
- pKP adjusted value [4]: 7.01
- ΔpK(1) Dichlorophenol [1]: .27

SMILES: Nc1ccc(Cl)c(Cl)c1 [3,4-Dichloroaniline]
- ΔpK(1) Dichloroaniline [1]: −.07

SMILES: Oc1ccc(Cl)c(Cl)c1 [3,4-Dichlorophenol]
- ΔpK(1) Dichlorophenol [1]: −.04
- difference of Hammett-calculated pK from the observed value [5]: 0.08

SMILES: O=C(O)c1ccc(Cl)c(Cl)c1 [3,4-dichlorobenzoic acid]
- ionization constant (pK) [2]: 3.64

SMILES: Nc1cc(Cl)cc(Cl)c1 [3,5-Dichloroaniline]
- ΔpK(1) Dichloroaniline [1]: .06
- difference of Hammett-calculated pK from the observed value [5]: 0.02

SMILES: Oc1cc(Cl)cc(Cl)c1 [3,5-Dichlorophenol]
- ΔpK(1) Dichlorophenol [1]: .07
- difference of Hammett-calculated pK from the observed value [5]: 0.01

SMILES: O=C(O)c1cc(Cl)cc(Cl)c1 [3,5-dichlorobenzoic acid]
- ionization constant (pK) [2]: 3.43

SMILES: Nc1ccc(Cl)cc1[N+](=O)[O-] [4-chloro-2-nitroaniline]
- discrepancy between observed and predicted pK, eq (8) [6]: 1.03

- discrepancy between observed and predicted pK, eq (8) [6]: 0.17
SMILES: Cc1cc(N)ccc1[N+](=O)[O-] [4-nitro-m-toluidine]
- pK ([2]; Wepster): 1.50
